Read-outs that look alike come from different tables or passages of the source.
Tests used:
[1] = target: T1, hGPR65 (Homo sapiens, UniProt Q8IYL9); test: cAMP detection in HeLa expression cell line, hGPR65; format: cell-based; conditions: for Emax: HeLa, read-out: hGPR Max Activity %; for cAMP production relative to BRD2813, hGPR65: pH 7.2
T1 construct: expressed in transfected cells; host or cells: HeLa (ATCC CCL-2), lentiviral transduction, pLX317
Description: (§1) HeLa stable expression cell lines were produced by lentiviral transduction. Briefly, lentiviral plasmids for each GPCR with a C-terminal V5 Tag ([…]) were made in a pLX317 backbone using competent Escherichia coli (New England Biolabs, C3050H). Lenti-X 293 T (Takara, 632810) cells were transfected with the lentiviral plasmids to produce virus. Low-passage HeLa cells (American Type Culture Collection, CCL-2) were then transduced with lentivirus. After 48 hours, HeLa cells were cultured under selection with puromycin (3 μg/ml) and allowed to recover and expand before storing stocks in liquid nitrogen.
(§2) cAMP was measured in cells using the Lance Ultra cAMP Kit. HeLa cells were cultured under puromycin (3 μg/ml) selection. One day before the experiment, cells were seeded in T75 flasks and allowed to adhere overnight. On the day of the experiment, cells were washed twice with Dulbecco’s PBS and lifted using prewarmed 1× versene solution (Gibco, 15040066). Cells were counted in HBSS (Gibco, 14025092) and then resuspended in stimulation buffer prepared according to the manufacturer’s instructions and adjusted to pH 7.2 using 1 M sodium hydroxide. Cells were added to the plate at a density of 1500 cells per well in white opaque 384-well assay ready microplates containing 100 nl of 10 mM compound in DMSO. Cells were stimulated for 30 min at RT, then lysed and incubated with detection reagents for 1 hour in the dark at RT. Plates were read on BMG Labtech PHERAstar FSX (excitation, 337 nm; emission, 620 and 665 nm). Data analysis was performed using GraphPad Prism.

[2] = target: T2, mGPR65 (Mus musculus, UniProt Q61038); test: cAMP detection in HeLa expression cell line, mGPR65; format: cell-based; conditions: for Emax: HeLa, read-out: mGPR Max Activity %; for cAMP production relative to BRD2813, mGPR65: pH 7.2
T2 construct: expressed in transfected cells; host or cells: HeLa (ATCC CCL-2), lentiviral transduction, pLX317
Description: as §1, §2

[3] = system: GFP-expressing HeLa cells; test: cAMP detection in HeLa expression cell line, GFP control; format: cell-based, human; conditions: Homo sapiens, HeLa; for Emax: relative to 100uM forskolin (100%) and DMSO (0%), read-out: GFP Max Activity %
Description: as §1, §2

[4] = 1st hGPR column pair, NA = no activity, read-out: hGPR EC50
[5] = 2nd hGPR column pair, NA = no activity, read-out: hGPR EC50
[6] = 1st hGPR column pair, relative to 100uM forskolin (100%) and DMSO (0%), NA = no activity
[7] = 2nd hGPR column pair, relative to 100uM forskolin (100%) and DMSO (0%), NA = no activity
[8] = 1st mGPR column pair, NA = no activity, read-out: mGPR EC50
[9] = 2nd mGPR column pair, NA = no activity, read-out: mGPR EC50
[10] = 2nd mGPR column pair, relative to 100uM forskolin (100%) and DMSO (0%), NA = no activity
[11] = relative to 100uM forskolin (100%) and DMSO (0%), NA = no activity
[12] = 2nd GFP column pair, NA = no activity
[13] = 1st GFP column pair, NA = no activity
[14] = mGPR EC50 (uM), NA = no activity
[15] = second pair, relative to 100uM forskolin (100%) and DMSO (0%)
[16] = hGPR EC50 (uM), NA = no activity
[17] = mGPR EC50 (uM), 2nd mGPR column pair, NA = no activity

T1 sequence (Q8IYL9 whole entry): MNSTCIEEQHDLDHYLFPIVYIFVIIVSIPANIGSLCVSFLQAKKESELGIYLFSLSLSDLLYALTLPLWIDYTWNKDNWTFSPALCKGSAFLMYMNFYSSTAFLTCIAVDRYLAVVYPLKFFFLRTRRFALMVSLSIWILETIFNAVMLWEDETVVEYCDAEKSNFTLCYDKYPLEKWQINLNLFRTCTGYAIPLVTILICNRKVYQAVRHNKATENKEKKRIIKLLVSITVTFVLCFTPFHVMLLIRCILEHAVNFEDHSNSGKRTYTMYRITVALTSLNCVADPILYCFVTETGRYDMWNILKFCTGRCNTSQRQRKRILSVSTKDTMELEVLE
T2 sequence (Q61038 whole entry): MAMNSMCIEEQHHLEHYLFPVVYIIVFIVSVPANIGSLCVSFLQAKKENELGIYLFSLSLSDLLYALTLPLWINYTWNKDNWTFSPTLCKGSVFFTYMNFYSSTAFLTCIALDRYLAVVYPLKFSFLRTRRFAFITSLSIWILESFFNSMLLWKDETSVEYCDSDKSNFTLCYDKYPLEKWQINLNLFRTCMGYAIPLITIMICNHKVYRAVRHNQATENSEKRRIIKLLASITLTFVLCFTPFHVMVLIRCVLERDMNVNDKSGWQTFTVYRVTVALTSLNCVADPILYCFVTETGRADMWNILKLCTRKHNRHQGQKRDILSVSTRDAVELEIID

Row | SMILES | EC50 [1, 4] | EC50 [1, 5] | Emax [1, 6] | Emax [1, 7] | EC50 [2, 8] | EC50 [2, 9] | Emax [2, 10] | Emax [2, 11] | EC50 [3, 12] | Emax [3, 12] | EC50 [3, 13] | Emax [3, 13] | further results
1 | CC(C)OCc1ccc(-c2cc(O)n3ncc(C(=O)Nc4cccnc4)c3n2)cc1 [BRD5077] | 5.55 µM | 8.26 µM | 57.8% | 70.1% | 2.51 µM | 2.72 µM | 62.4% | 70% | 1.62 µM | 3.65% | – | – | –
2 | Cc1ccc(NC(=O)c2cnn3c(O)cc(-c4ccc(COC(C)C)cc4)nc23)c(Cl)c1 [BRD5081] | 4.26 µM | 7.63 µM | 80.6% | 63.4% | 1.01 µM | 1.14 µM | 60.4% | 66.3% | – | – | 1.62 µM | 2.48% | –
3 | Cc1ccc(NC(=O)c2cnn3c(O)cc(-c4ccc(C(N)=O)cc4)nc23)cc1 [BRD5082] | – | – | 0% | – | – | – | – | 4.93% | 17.9 µM | 7.17% | 38.5 µM | 14.2% | cAMP production relative to BRD2813, hGPR65 [1]: eliminated all cAMP activity; EC50 [2, 14]: 12.3 µM; cAMP production relative to BRD2813, mGPR65 [2]: eliminated all cAMP activity
4 | CNC(=O)c1ccc(-c2cc(O)n3ncc(C(=O)Nc4ccc(C)cc4)c3n2)cc1 [BRD5083] | 26.2 µM | – | 75.2% | – | – | 99.6 µM | 106% | – | 6.27 µM | 1.9% | – | – | –
5 | Cc1ccc(NC(=O)c2cnn3c(O)cc(-c4ccc(C(=O)N(C)C)cc4)nc23)cc1 [BRD5084] | 2 µM | 1.23 µM | 39.1% | 40.2% | 2.98 µM | 1.63 µM | 31.2% | 32.1% | 33.6 µM | 7.64% | 11.5 µM | 5.15% | –
6 | Cc1ccc(NC(=O)c2cnn3c(O)cc(-c4ccc(C(F)(F)F)cc4)nc23)cc1 [BRD5668] | 0.114 µM | 0.587 µM | 77% | 70.8% | 3.49 µM | 6.28 µM | -22.2% | -22.7% | 0.183 µM | 1.82% | – | – | –
7 | Cc1ccc(NC(=O)c2cnn3c(O)cc(-c4ccc(C5CCCCC5)cc4)nc23)cc1 [BRD5881] | – | – | – | – | – | – | – | – | – | – | – | – | Emax ([1]; first pair, relative to 100uM forskolin (100%) and DMSO (0%)): 39.5%; Emax [1, 15]: 95.7%; EC50 ([1]; SAR cAMP assay, first EC50/Max pair of hGPR columns, read-out: hGPR EC50): 3.88 µM; EC50 ([1]; SAR cAMP assay, second EC50/Max pair of hGPR columns, read-out: hGPR EC50): 90.6 µM; Emax [2, 15]: 9.83%; EC50 ([2]; SAR cAMP assay, second EC50/Max pair of mGPR columns, read-out: mGPR EC50): 0.579 µM; EC50 ([3]; SAR cAMP assay, second EC50/Max pair of GFP control columns): 0.453 µM; Emax ([3]; second pair): 1.64%
8 | COc1cccc(-c2cc(O)n3ncc(C(=O)Nc4ccc(C)cc4)c3n2)c1 [BRD6202] | 1.3 µM | 1.75 µM | 72.3% | 73.6% | 0.378 µM | 0.451 µM | 58.8% | 63.3% | 0.195 µM | 3.9% | 3.17 µM | 1.48% | –
9 | CCS(=O)(=O)c1ccc(NC(=O)c2cnn3c(O)cc(-c4ccc(COC)cc4)nc23)cc1 [BRD7157] | – | – | – | – | 10.7 µM | 14.6 µM | 19.6% | 64.9% | 16.7 µM | 6.57% | – | – | EC50 ([1]; NA = no activity, read-out: hGPR EC50): 27.2 µM; hGPR Max Activity [1, 11]: 17.41%; EC50 ([2]; 3rd mGPR column pair, NA = no activity, read-out: mGPR EC50): 4.47 µM; mGPR Max Activity [2, 11]: 44.17%
10 | Cc1ccc(NC(=O)c2cnn3c(O)cc(-c4ccc(N5CCN(C)CC5)cc4)nc23)cc1 [BRD7215] | – | – | 48.2% | 57.7% | – | – | 48.7% | 57.8% | 63.5 µM | 7.18% | – | – | EC50 [1, 16]: 2.74 µM; EC50 ([1]; hGPR EC50, NA = no activity): 4.39 µM; cAMP production relative to BRD2813, hGPR65 [1]: decreasing cAMP production; EC50 [2, 17]: 1.1 µM; EC50 [2, 14]: 0.161 µM; cAMP production relative to BRD2813, mGPR65 [2]: increasing activity
11 | CCCc1cc(-c2cc(O)n3ncc(C(=O)Nc4ccc(C)cc4)c3n2)no1 [BRD8472] | 1.25 µM | 0.79 µM | 67.7% | 51.3% | 0.103 µM | 0.397 µM | 55.4% | 59.4% | – | – | 24.9 µM | 2.75% | –
12 | Cc1ccc(NC(=O)c2cnn3c(O)cc(-c4ccc(N5CCC(=O)CC5)cc4)nc23)cc1 [BRD8536] | 4.05 µM | 5.53 µM | 65.7% | 63.9% | 0.98 µM | 2.81 µM | 52.9% | 63.5% | – | – | 0.801 µM | 1.86% | –
13 | Cc1ccc(NC(=O)c2cnn3c(O)cc(-c4ccc(-c5ccccc5)cc4)nc23)cc1 [BRD8716] | 0.171 µM | 0.284 µM | 79.2% | 72.4% | 0.368 µM | 0.528 µM | 33.1% | 40.2% | 5.6 µM | 1.51% | 7.3 µM | 1.95% | potency and total cAMP production relative to BRD2813 ([1]; receptor not given): improved potency but had little effect on total cAMP production
14 | COCc1ccc(-c2cc(O)n3ncc(C(=O)Nc4ccccc4)c3n2)cc1 [BRD9876] | – | – | 81.6% | 79.5% | – | – | 34.4% | 45.3% | 25.7 µM | 3.97% | 3.62 µM | 1.96% | EC50 [1, 16]: 8.06 µM; EC50 ([1]; hGPR EC50, NA = no activity): 12 µM; cAMP production relative to BRD2813, hGPR65 [1]: detrimental to potency; EC50 [2, 17]: 4.76 µM; EC50 [2, 14]: 4.06 µM; cAMP production relative to BRD2813, mGPR65 [2]: decreased potency

Source: PMC11259170, “Small-molecule probe for IBD risk variant GPR65 I231L alters cytokine signaling networks through positive allosteric modulation” (Science Advances, 2024)
